{"source": "paper PMC9863297", "about": "“Intermolecular Interactions of Edaravone in Aqueous Solutions of Ethaline and Glyceline Inferred from Experiments and Quantum Chemistry Computations” (Molecules, 2023)", "test": "Edaravone solubility, slurry/shake-flask method with spectrophotometric determination at 243 nm", "assay_type": "physicochemical", "conditions": "for solubility at 24 h: thermodynamic from solid, read-out: cE solubility concentration; for mole fraction solubility advantage of 1:2 composition over unimolar composition: DES involving ethylene glycol; for volume of saturated solution containing the recommended 60 mg: solubility at 298.15 K", "procedure": "The first step in obtaining a calibration curve was the preparation of a stock solution of edaravone with a concentration of 2.3 mg/mL. This initial solution was successfully diluted in 10 mL volumetric flasks with methanol and the obtained solutions with decreasing concentrations were measured spectrophotometrically. […] Three separate curves were obtained, and the final curve resulted from averaging. […] The limits of detection (LOD) and quantification (LOQ) were calculated as 5.899∙10^−4 mg/mL and 1.770∙10^−3 mg/mL, respectively.\nAll of the studied deep eutectic solvents included choline chloride, while the second constituent was either glycerol or ethylene glycol. In order to prepare a DES formulation, choline chloride was mixed with the second compound in different molar ratios in sealed test tubes and placed in a water bath at 363.15 K until the formation of a uniform solution. The obtained DES were either used in their neat form or water was added to them in different proportions in order to form binary systems.\nDuring the next stage, edaravone was added in excess amounts to the test tubes containing both neat DES and binary mixtures, which enabled us to obtain its saturated solutions. Samples prepared in such a manner were placed in an Orbital Shaker Incubator ES-20/60 from Biosan (Riga, Latvia) and incubated for 24 h at different temperatures, namely 298.15 K, 303.15 K, 308.15 K and 313.15 K. The temperature adjustment accuracy was 0.1 K and its variability in a 24 h cycle was ±0.5 K. Apart from heating, all of the samples were mixed at 60 rev/min. The increased viscosity and density of DES systems required the samples to be centrifuged at 1000 rev/min for 5 min with the use of EBA 20 centrifuge from Hettich (Tuttlingen, Germany) enabling the undissolved precipitate to remain on the bottom of the test tubes. Next, the samples were filtered using a syringe equipped with a PTFE syringe filer with 0.22 µm pore size. In order to avoid precipitation, the test tubes, syringes and filters were initially heated at a temperature equal to the one of the handled samples. Finally, small amounts of the obtained filtrate were transferred to test tubes filled with methanol and the diluted samples were measured spectrophotometrically. Additionally, for the determination of the mole fractions of edaravone, the density of the samples was measured by weighing a fixed volume of the solution in 10 mL volumetric flasks.\nFor determining the solubility of edaravone in the studied systems, the samples prepared, as described above, were measured spectrophotometrically using an A360 spectrophotometer from AOE Instruments (Shanghai, China). The spectra were recorded in the 190 nm to 500 nm wavelength range and 1 nm resolution. Methanol was used for the initial calibration of the spectrophotometer and for the dilution of the measured samples, which was conducted in order for the absorbance values to remain below 2.5. The absorbance values at 243 nm were taken into account and based on the calibration curve prepared earlier, the concentration of edaravone in the samples was determined, followed by its mole fractions. The values were averaged from three separate measurements.", "note": "Read-outs that look alike come from different tables or passages of the source.", "data": [{"smiles": "CC1=NN(c2ccccc2)C(=O)C1", "note": "[edaravone, 5-methyl-2-phenyl-4H-pyrazol-3-one]", "values": [{"measurement": "solubility at 24 h", "setting": "40 °C, aqueous with cosolvent or surfactant or cyclodextrin, water + GLE (ChCl:GL 1:2), x*GLE = 0.6, 313.15 K", "result": 692, "unit": "mg/mL"}, {"measurement": "solubility at 24 h", "setting": "40 °C, aqueous with cosolvent or surfactant or cyclodextrin, water + GLE (ChCl:GL 1:2), x*GLE = 0.8, 313.15 K", "result": 602, "unit": "mg/mL"}, {"measurement": "solubility at 24 h", "setting": "40 °C, organic solvent or mixture, neat DES choline chloride + glycerol (GLE) 1:1 molar ratio, 313.15 K", "result": 398, "unit": "mg/mL"}, {"measurement": "solubility at 24 h", "setting": "40 °C, organic solvent or mixture, neat DES choline chloride + glycerol (GLE) 1:2 molar ratio (x*GLE = 1.0), 313.15 K", "result": 492, "unit": "mg/mL"}, {"measurement": "solubility at 24 h", "setting": "40 °C, organic solvent or mixture, neat DES choline chloride + glycerol (GLE) 1:4 molar ratio, 313.15 K", "result": 470, "unit": "mg/mL"}, {"measurement": "mole fraction solubility advantage of 1:2 composition over unimolar composition", "setting": "298.15 K", "result": 53, "unit": "%"}, {"measurement": "mole fraction solubility advantage of 1:2 composition over unimolar composition", "setting": "313.15 K", "result": 21, "unit": "%"}, {"measurement": "solubility at 24 h", "setting": "deep eutectic solvent + water binary mixture, 25 °C, aqueous with cosolvent or surfactant or cyclodextrin, water + ETA (ChCl:EG 1:2), x*ETA = 0.8, 298.15 K", "result": 363, "unit": "mg/mL"}, {"measurement": "solubility at 24 h", "setting": "deep eutectic solvent + water binary mixture, 30 °C, aqueous with cosolvent or surfactant or cyclodextrin, water + ETA (ChCl:EG 1:2), x*ETA = 0.6, 303.15 K", "result": 561, "unit": "mg/mL"}, {"measurement": "solubility at 24 h", "setting": "deep eutectic solvent + water binary mixture, 30 °C, aqueous with cosolvent or surfactant or cyclodextrin, water + ETA (ChCl:EG 1:2), x*ETA = 0.8, 303.15 K", "result": 452, "unit": "mg/mL"}, {"measurement": "solubility at 24 h", "setting": "deep eutectic solvent + water binary mixture, 35 °C, aqueous with cosolvent or surfactant or cyclodextrin, water + ETA (ChCl:EG 1:2), x*ETA = 0.5, 308.15 K", "result": 664, "unit": "mg/mL"}, {"measurement": "solubility at 24 h", "setting": "deep eutectic solvent + water binary mixture, 35 °C, aqueous with cosolvent or surfactant or cyclodextrin, water + ETA (ChCl:EG 1:2), x*ETA = 0.6, 308.15 K", "result": 670, "unit": "mg/mL"}, {"measurement": "solubility at 24 h", "setting": "deep eutectic solvent + water binary mixture, 35 °C, aqueous with cosolvent or surfactant or cyclodextrin, water + ETA (ChCl:EG 1:2), x*ETA = 0.8, 308.15 K", "result": 561, "unit": "mg/mL"}, {"measurement": "solubility at 24 h", "setting": "deep eutectic solvent + water binary mixture, 40 °C, aqueous with cosolvent or surfactant or cyclodextrin, water + ETA (ChCl:EG 1:2), x*ETA = 0.5, 313.15 K", "result": 744, "unit": "mg/mL"}, {"measurement": "solubility at 24 h", "setting": "deep eutectic solvent + water binary mixture, 40 °C, aqueous with cosolvent or surfactant or cyclodextrin, water + ETA (ChCl:EG 1:2), x*ETA = 0.6, 313.15 K", "result": 753, "unit": "mg/mL"}, {"measurement": "solubility at 24 h", "setting": "deep eutectic solvent + water binary mixture, 40 °C, aqueous with cosolvent or surfactant or cyclodextrin, water + ETA (ChCl:EG 1:2), x*ETA = 0.8, 313.15 K", "result": 655, "unit": "mg/mL"}, {"measurement": "solubility increase in optimal binary composition compared to neat DES", "setting": "glycerol-containing systems, x*DES = 0.6, average", "result": 28, "unit": "%"}, {"measurement": "volume of saturated solution containing the recommended 60 mg", "setting": "neat DES ETA", "result": 0.20, "unit": "mL"}, {"measurement": "volume of saturated solution containing the recommended 60 mg", "setting": "neat DES GLE", "result": 0.32, "unit": "mL"}, {"measurement": "xE mole fraction solubility", "setting": "neat DES choline chloride + ethylene glycol (ETA) 1:1 molar ratio, 298.15 K", "result": "1031.93 (±62.91) mole fraction ∙10^4"}, {"measurement": "xE mole fraction solubility", "setting": "neat DES choline chloride + ethylene glycol (ETA) 1:1 molar ratio, 303.15 K", "result": "1400.98 (±40.74) mole fraction ∙10^4"}, {"measurement": "xE mole fraction solubility", "setting": "neat DES choline chloride + ethylene glycol (ETA) 1:1 molar ratio, 308.15 K", "result": "2089.82 (±49.36) mole fraction ∙10^4"}, {"measurement": "xE mole fraction solubility", "setting": "neat DES choline chloride + ethylene glycol (ETA) 1:1 molar ratio, 313.15 K", "result": "2966.24 (±120.59) mole fraction ∙10^4"}, {"measurement": "xE mole fraction solubility", "setting": "neat DES choline chloride + ethylene glycol (ETA) 1:2 molar ratio (x*ETA = 1.0), 298.15 K", "result": "1579.47 (±70.73) mole fraction ∙10^4"}, {"measurement": "xE mole fraction solubility", "setting": "neat DES choline chloride + ethylene glycol (ETA) 1:2 molar ratio (x*ETA = 1.0), 303.15 K", "result": "2135.68 (±42.46) mole fraction ∙10^4"}, {"measurement": "xE mole fraction solubility", "setting": "neat DES choline chloride + ethylene glycol (ETA) 1:2 molar ratio (x*ETA = 1.0), 308.15 K", "result": "2878.22 (±133.85) mole fraction ∙10^4"}, {"measurement": "xE mole fraction solubility", "setting": "neat DES choline chloride + ethylene glycol (ETA) 1:2 molar ratio (x*ETA = 1.0), 313.15 K", "result": "3602.21 (±117.41) mole fraction ∙10^4"}, {"measurement": "xE mole fraction solubility", "setting": "neat DES choline chloride + ethylene glycol (ETA) 1:4 molar ratio, 298.15 K", "result": "1306.68 (±55.75) mole fraction ∙10^4"}, {"measurement": "xE mole fraction solubility", "setting": "neat DES choline chloride + ethylene glycol (ETA) 1:4 molar ratio, 303.15 K", "result": "1677.66 (±47.52) mole fraction ∙10^4"}, {"measurement": "xE mole fraction solubility", "setting": "neat DES choline chloride + ethylene glycol (ETA) 1:4 molar ratio, 308.15 K", "result": "2434.99 (±114.12) mole fraction ∙10^4"}, {"measurement": "xE mole fraction solubility", "setting": "neat DES choline chloride + ethylene glycol (ETA) 1:4 molar ratio, 313.15 K", "result": "3428.20 (±105.69) mole fraction ∙10^4"}, {"measurement": "xE mole fraction solubility", "setting": "neat DES choline chloride + glycerol (GLE) 1:1 molar ratio, 298.15 K", "result": "786.83 (±3.34) mole fraction ∙10^4"}, {"measurement": "xE mole fraction solubility", "setting": "neat DES choline chloride + glycerol (GLE) 1:1 molar ratio, 303.15 K", "result": "1173.65 (±39.25) mole fraction ∙10^4"}, {"measurement": "xE mole fraction solubility", "setting": "neat DES choline chloride + glycerol (GLE) 1:1 molar ratio, 308.15 K", "result": "1615.31 (±40.69) mole fraction ∙10^4"}, {"measurement": "xE mole fraction solubility", "setting": "neat DES choline chloride + glycerol (GLE) 1:1 molar ratio, 313.15 K", "result": "2429.30 (±72.71) mole fraction ∙10^4"}, {"measurement": "xE mole fraction solubility", "setting": "neat DES choline chloride + glycerol (GLE) 1:2 molar ratio (x*GLE = 1.0), 298.15 K", "result": "1052.85 (±68.85) mole fraction ∙10^4"}]}]}
